In assay [1] the test system is HeLa cells pre-infected with L2. The assay can be described thus: Secondary EB infection of pre-infected HeLa cells (Tarp translocation, stability, EB entry). The class given is cell-based, C. trachomatis. The procedure:
FIG. 8 depicts (A-C(I-IV)) Tarp translocated by EBs is a target of CPAF-mediated degradation. Uninfected and HeLa cells pre-infected with L2 for 30 hrs were treated with inhibitory peptides and infected with EBs for 10 min Tarp translocation was indirectly visualized with an anti-phosphotyrosine antibody (A) and quantified by counting 50 separate cells (B). The stability of newly translocated Tarp was assessed by infecting cells as in (A) but with S^35-labeled EBs, followed by sequential immunoprecipitation of Tarp and MOMP and Phosphoimager analysis of precipitated material (C (I-IV)). Tarp is degraded in pre-infected HeLa cells in a CPAF-dependent manner. (D) Effective inhibition of CPAF activity by inhibitory peptide. IC50 values were determined by assessing CPAF cleavage of an Abz-tagged CPAF substrate (SEQ ID NO:9) by HPLC. Assays were performed the presence of increasing amount of inhibitors. […] CPAF cleavage of GST-chlamydial substrates was performed as in FIG. 4B but in the presence of SEQ ID NO:7 and SEQ ID NO:11 peptides (E). For in vivo inhibition effects on Chlamydia (L2), infected HeLa cells were treated with peptides at 12 hpi, and harvested at 30 hpi (F). […] (G and H) CPAF restricts EB entry into preinfected cells. Cells were infected as in (A), except that the secondary infections (30 min) were performed with fluorescently labeled EBs and infected cells were not permeabilized. […] Extracellular bacteria were determined. […] The number of internalized EBs was quantified per cell (H). […]
Next, HeLa cells or inclusion-containing HeLa cells were infected with ^35S-radiolabeled EBs, followed by immunoprecipitation of Tarp at various times after infection to determine the stability of translocated Tarp under these conditions. […] Tarp and MOMP were immunoprecipitated using anti-Tarp and anti-MOMP protein A sepharose beads (available from GE Healthcare), detected in a Typhoon9410 Variable Image Phosphor Imager (available from Amersham Biosciences), and quantified using ImageQuant 5.1TL software (available from GE Healthcare). […]

The next assay deals with CPAF (Chlamydia trachomatis serovar D, UniProt O84866). Format: biochemical, C. trachomatis. The following applies: GST-chlamydial substrates in presence of peptides. More on the design: 6xHis; made in house; host or cells: E. coli (pET30b). The procedure: FIG. 4 depicts (A) Recombinant Chlamydia ORFs were tested for sensitivity to host and bacterial derived proteases. […] Purified his-tagged CPAF was incubated with GST-tagged chlamydial substrates at 37° C. for 20 min with increasing amounts of lactacystin. Cleavage products were run on an SDS PAGE gel and visualized with Coomassie blue staining. (C) Schematic summary of CPAF targets. […] Membranes from Chlamydia-infected HeLa cells were harvested and purified at 0, 24, 36 and 48 hours post-infection, and the abundance of the chlamydial proteins Ct005, IncC and IncD were monitored with specific antibodies. Na/K ATPase and IncG served as host and bacterial-loading controls, respectively.
Cytosols from Chlamydia-infected HeLa cells (40 hrs) or recombinant his-tagged CPAF were pre-treated with rabbit polyclonal anti-CPAF or anti-IncA antisera, and incubated with GST-tagged Chlamydia proteins for 20 min at 37° C. […] Three example proteins shown include a type-III secretion (T3S) core component (CdsQ) a T3S chaperone (Mcsc) and a T3S needle component (Ct584). Processing of recombinant proteins in A-B were monitored by immunoblot analysis with specific antibodies. (C) Protease inhibitor profile of recombinant CPAF. Example shown for the chlamydial substrate GST-IncC. Degradation products were visualized by SDS-PAGE followed by staining with Coomassie blue. […]
Uninfected and HeLa cells pre-infected with L2 for 30 hrs were treated with inhibitory peptides and infected with EBs for 10 min Tarp translocation was indirectly visualized with an anti-phosphotyrosine antibody (A) and quantified by counting 50 separate cells (B). The stability of newly translocated Tarp was assessed by infecting cells as in (A) but with S^35-labeled EBs, followed by sequential immunoprecipitation of Tarp and MOMP and Phosphoimager analysis of precipitated material (C (I-IV)). […] IC50 values were determined by assessing CPAF cleavage of an Abz-tagged CPAF substrate (SEQ ID NO:9) by HPLC. […] Extracellular bacteria were determined. […] The number of internalized EBs was quantified per cell (H). […]

From patent US8617563B2, “Antichlamydial agents” (Duke University, priority 2011, dated 2013) come the findings set out here.

Where no end group is shown, it is not given here.

CPAF, sequence (O84866 1-234, added parts left off): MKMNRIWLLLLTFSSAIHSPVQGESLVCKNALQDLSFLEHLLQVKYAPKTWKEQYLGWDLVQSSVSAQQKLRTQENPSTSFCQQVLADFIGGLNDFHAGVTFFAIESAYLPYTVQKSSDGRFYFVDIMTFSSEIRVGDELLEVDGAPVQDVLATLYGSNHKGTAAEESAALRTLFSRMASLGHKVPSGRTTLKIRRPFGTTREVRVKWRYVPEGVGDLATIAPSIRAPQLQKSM
CPAF, sequence (O84866 276-601): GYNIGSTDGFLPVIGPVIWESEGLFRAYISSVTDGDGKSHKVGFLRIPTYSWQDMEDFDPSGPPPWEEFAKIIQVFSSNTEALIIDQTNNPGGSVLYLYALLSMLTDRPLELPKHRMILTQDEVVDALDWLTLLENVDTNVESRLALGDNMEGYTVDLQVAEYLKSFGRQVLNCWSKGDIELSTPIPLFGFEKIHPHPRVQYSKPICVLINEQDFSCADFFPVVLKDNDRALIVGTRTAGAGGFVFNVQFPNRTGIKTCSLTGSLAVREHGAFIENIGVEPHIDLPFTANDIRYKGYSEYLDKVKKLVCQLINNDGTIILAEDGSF

Regarding “SLFYSPMVPHFWAELRNHYATSGLKRRRRRRRRR-NH2 [SEQ ID NO:7]”, in assay [1] (pre-infected HeLa cells (30 h), 12 μM peptide), the “Accumulation of Tyr-phosphorylated proteins at EB attachment sites” value is “restored the accumulation”. Moreover, in assay [1] (pre-infected HeLa cells, 35S-labeled EBs, 12 μM peptide), the “Degradation of Tarp in pulse-chase experiments” value is reported as “blocked the degradation of Tarp”. Further, the “EB entry into preinfected cells” value in assay [1] (secondary infection 30 min, labeled EBs) is “increased EB entry”. Further, the “Inhibition of degradation of CPAF substrates in vitro” value at CPAF is “broadly inhibited degradation of CPAF substrates”.
